From patent publication US12404241B2 (Celgene Corporation, priority 2018, dated 2025)

Molecular target: T1, AR (Homo sapiens, UniProt P10275)
T1 construct: endogenous in cells; host or cells: VCaP cells
T1 sequence (P10275 1-920): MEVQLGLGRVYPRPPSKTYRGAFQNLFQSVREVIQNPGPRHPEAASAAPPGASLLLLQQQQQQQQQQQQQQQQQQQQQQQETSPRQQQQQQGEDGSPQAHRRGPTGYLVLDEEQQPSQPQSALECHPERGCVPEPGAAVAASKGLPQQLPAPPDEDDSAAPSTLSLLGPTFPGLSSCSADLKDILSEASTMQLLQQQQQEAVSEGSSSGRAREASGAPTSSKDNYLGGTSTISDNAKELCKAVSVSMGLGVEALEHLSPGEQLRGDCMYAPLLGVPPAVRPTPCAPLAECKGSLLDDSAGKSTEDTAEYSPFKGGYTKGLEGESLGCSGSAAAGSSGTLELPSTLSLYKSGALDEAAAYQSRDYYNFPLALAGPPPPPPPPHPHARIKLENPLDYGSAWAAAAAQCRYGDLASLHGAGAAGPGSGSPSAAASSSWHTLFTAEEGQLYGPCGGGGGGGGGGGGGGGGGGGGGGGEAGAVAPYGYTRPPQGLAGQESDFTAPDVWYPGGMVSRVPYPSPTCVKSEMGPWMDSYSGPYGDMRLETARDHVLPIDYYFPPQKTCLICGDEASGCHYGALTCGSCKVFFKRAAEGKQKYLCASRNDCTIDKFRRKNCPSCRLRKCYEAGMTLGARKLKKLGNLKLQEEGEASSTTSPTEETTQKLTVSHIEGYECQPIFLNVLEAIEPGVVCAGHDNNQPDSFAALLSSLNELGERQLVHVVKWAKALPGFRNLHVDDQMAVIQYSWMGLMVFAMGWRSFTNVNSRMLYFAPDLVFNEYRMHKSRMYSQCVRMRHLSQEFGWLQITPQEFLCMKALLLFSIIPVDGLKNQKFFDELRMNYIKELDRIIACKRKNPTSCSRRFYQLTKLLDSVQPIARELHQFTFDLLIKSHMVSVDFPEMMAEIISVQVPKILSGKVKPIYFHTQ
Test: VCAP AR Degradation Assay
Assay type: cell-based
Details: for Y (AR degradation efficiency, % of DMSO control): class symbols *; for DC50: class symbols A-C, read-out: DC50
Procedure, shortened: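 24 h, 37 °C, VCaP (DMEM/8% FBS), 10-pt 1:3 dilutions from 5 μM final top, 0.1% DMSO ctrl. Lysis on ice/4 °C 1 h; total AR by sandwich ELISA, normalized to DMSO. 4PL fit → DC50, EC50, Y (min AR level).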

Row | Structure (SMILES) | Y (AR degradation efficiency, % of DMSO control) | DC50 [µM]
1 | CC(F)(F)c1cc(N2C(=S)N(c3cnc(C#N)c(C(F)(F)F)c3)C(=O)C2(C)C)ccc1OCCN1CCN(CC(=O)Nc2cccc(NC3CCC(=O)NC3=O)c2)CC1 (stereo not drawn) [Example 60, 2-(4-(2-(4-(3-(6-cyano-5-(trifluoromethyl)pyridin-3-yl)-5,5-dimethyl-4-oxo-2-thioxoimidazolidin-1-yl)-2-(1,1-difluoroethyl)phenoxy)ethyl)piperazin-1-yl)-N-(3-(2,6-dioxopiperidin-3-ylamino)phenyl)acetamide] | * (0<Y<=25%) | < 0.1
2 | CCc1cc(N2C(=S)N(c3ccc(C#N)c(C(F)(F)F)c3)C(=O)C2(C)C)ccc1OCCN1CCN(CC(=O)Nc2cc(F)cc(NC3CCC(=O)NC3=O)c2)CC1 (stereo not drawn) [Example 61, 2-(4-(2-(4-(3-(4-cyano-3-(trifluoromethyl)phenyl)-5,5-dimethyl-4-oxo-2-thioxoimidazolidin-1-yl)-2-ethylphenoxy)ethyl)piperazin-1-yl)-N-(3-(2,6-dioxopiperidin-3-ylamino)-5-fluorophenyl)acetamide] | * (0<Y<=25%) | < 0.1
3 | CC(F)(F)c1cc(N2C(=S)N(c3cnc(C#N)c(C(F)(F)F)c3)C(=O)C2(C)C)ccc1OCCN1CCN(CC(=O)Nc2cc(Cl)cc(NC3CCC(=O)NC3=O)c2)CC1 (stereo not drawn) [Example 62, N-(3-chloro-5-(2,6-dioxopiperidin-3-ylamino)phenyl)-2-(4-(2-(4-(3-(6-cyano-5-(trifluoromethyl)pyridin-3-yl)-5,5-dimethyl-4-oxo-2-thioxoimidazolidin-1-yl)-2-(1,1-difluoroethyl)phenoxy)ethyl)piperazin-1-yl)acetamide] | * (0<Y<=25%) | < 0.1
4 | CCc1cc(N2C(=S)N(c3cnc(C#N)c(C(F)(F)F)c3)C(=O)C2(C)C)ccc1OCCN1CCN(CC(=O)Nc2cc(F)cc(NC3CCC(=O)NC3=O)c2)CC1 (stereo not drawn) [Example 63, 2-(4-(2-(4-(3-(6-cyano-5-(trifluoromethyl)pyridin-3-yl)-5,5-dimethyl-4-oxo-2-thioxoimidazolidin-1-yl)-2-ethylphenoxy)ethyl)piperazin-1-yl)-N-(3-(2,6-dioxopiperidin-3-ylamino)-5-fluorophenyl)acetamide] | * (0<Y<=25%) | < 0.1
5 | CCc1cc(N2C(=S)N(c3cnc(C#N)c(C(F)(F)F)c3)C(=O)C2(C)C)ccc1OCCN1CCN(CC(=O)Nc2cc(NC3CCC(=O)NC3=O)ccc2F)CC1 (stereo not drawn) [Example 64, 2-(4-(2-(4-(3-(6-cyano-5-(trifluoromethyl)pyridin-3-yl)-5,5-dimethyl-4-oxo-2-thioxoimidazolidin-1-yl)-2-ethylphenoxy)ethyl)piperazin-1-yl)-N-(5-(2,6-dioxopiperidin-3-ylamino)-2-fluorophenyl)acetamide] | * (0<Y<=25%) | < 0.1
6 | CC1(C)C(=O)N(c2ccc(C#N)c(C(F)(F)F)c2)C(=S)N1c1ccc(OCCN2CCN(CC(=O)Nc3cc(C#N)cc(NC4CCC(=O)NC4=O)c3)CC2)c(F)c1 (stereo not drawn) [Example 65, 2-(4-(2-(4-(3-(4-cyano-3-(trifluoromethyl)phenyl)-5,5-dimethyl-4-oxo-2-thioxoimidazolidin-1-yl)-2-fluorophenoxy)ethyl)piperazin-1-yl)-N-(3-cyano-5-(2,6-dioxopiperidin-3-ylamino)phenyl)acetamide] | ** (25%<Y<=35%) | 0.1 to 0.5
7 | CC1(C)C(=O)N(c2cnc(C#N)c(C(F)(F)F)c2)C(=S)N1c1ccc(OCCN2CCN(CC(=O)Nc3cc(NC4CCC(=O)NC4=O)ccc3F)CC2)c(CC(F)F)c1 (stereo not drawn) [Example 66, 2-(4-(2-(4-(3-(6-cyano-5-(trifluoromethyl)pyridin-3-yl)-5,5-dimethyl-4-oxo-2-thioxoimidazolidin-1-yl)-2-(2,2-difluoroethyl)phenoxy)ethyl)piperazin-1-yl)-N-(5-(2,6-dioxopiperidin-3-ylamino)-2-fluorophenyl)acetamide] | * (0<Y<=25%) | < 0.1
8 | CC1(C)C(=O)N(c2cnc(C#N)c(C(F)(F)F)c2)C(=S)N1c1ccc(OCCN2CCN(CC(=O)Nc3cc(Cl)cc(NC4CCC(=O)NC4=O)c3)CC2)c(CC(F)F)c1 (stereo not drawn) [Example 67, N-(3-chloro-5-(2,6-dioxopiperidin-3-ylamino)phenyl)-2-(4-(2-(4-(3-(6-cyano-5-(trifluoromethyl)pyridin-3-yl)-5,5-dimethyl-4-oxo-2-thioxoimidazolidin-1-yl)-2-(2,2-difluoroethyl)phenoxy)ethyl)piperazin-1-yl)acetamide] | * (0<Y<=25%) | < 0.1
9 | CC1(C)C(=O)N(c2cnc(C#N)c(C(F)(F)F)c2)C(=S)N1c1ccc(OCCN2CCN(CC(=O)Nc3cc(F)cc(NC4CCC(=O)NC4=O)c3)CC2)c(CC(F)F)c1 (stereo not drawn) [Example 68, 2-(4-(2-(4-(3-(6-cyano-5-(trifluoromethyl)pyridin-3-yl)-5,5-dimethyl-4-oxo-2-thioxoimidazolidin-1-yl)-2-(2,2-difluoroethyl)phenoxy)ethyl)piperazin-1-yl)-N-(3-(2,6-dioxopiperidin-3-ylamino)-5-fluorophenyl)acetamide] | * (0<Y<=25%) | < 0.1
10 | CCc1cc(N2C(=S)N(c3ccc(C#N)c(C(F)(F)F)c3)C(=O)C2(C)C)cnc1OCCN1CCN(CC(=O)Nc2cc(Cl)cc(NC3CCC(=O)NC3=O)c2)CC1 (stereo not drawn) [Example 69, N-(3-chloro-5-(2,6-dioxopiperidin-3-ylamino)phenyl)-2-(4-(2-(5-(3-(4-cyano-3-(trifluoromethyl)phenyl)-5,5-dimethyl-4-oxo-2-thioxoimidazolidin-1-yl)-3-ethylpyridin-2-yloxy)ethyl)piperazin-1-yl)acetamide] | * (0<Y<=25%) | < 0.1
11 | CCc1cc(N2C(=S)N(c3ccc(C#N)c(C(F)(F)F)c3)C(=O)C2(C)C)ccc1OCCN1CCN(CC(=O)Nc2cc(NC3CCC(=O)NC3=O)cc(F)c2F)CC1 (stereo not drawn) [Example 70, 2-(4-(2-(4-(3-(4-cyano-3-(trifluoromethyl)phenyl)-5,5-dimethyl-4-oxo-2-thioxoimidazolidin-1-yl)-2-ethylphenoxy)ethyl)piperazin-1-yl)-N-(5-(2,6-dioxopiperidin-3-ylamino)-2,3-difluorophenyl)acetamide] | * (0<Y<=25%) | < 0.1
12 | CC1(C)C(=O)N(c2cnc(C#N)c(C(F)(F)F)c2)C(=S)N1c1ccc(OCCN2CCN(CC(=O)Nc3cc(NC4CCC(=O)NC4=O)ccc3F)CC2)c(CCF)c1 (stereo not drawn) [Example 71, 2-(4-(2-(4-(3-(6-cyano-5-(trifluoromethyl)pyridin-3-yl)-5,5-dimethyl-4-oxo-2-thioxoimidazolidin-1-yl)-2-(2-fluoroethyl)phenoxy)ethyl)piperazin-1-yl)-N-(5-(2,6-dioxopiperidin-3-ylamino)-2-fluorophenyl)acetamide] | * (0<Y<=25%) | < 0.1
13 | CC1(C)C(=O)N(c2cnc(C#N)c(C(F)(F)F)c2)C(=S)N1c1ccc(OCCN2CCN(CC(=O)Nc3cc(Cl)cc(NC4CCC(=O)NC4=O)c3)CC2)c(CCF)c1 (stereo not drawn) [Example 72, N-(3-chloro-5-(2,6-dioxopiperidin-3-ylamino)phenyl)-2-(4-(2-(4-(3-(6-cyano-5-(trifluoromethyl)pyridin-3-yl)-5,5-dimethyl-4-oxo-2-thioxoimidazolidin-1-yl)-2-(2-fluoroethyl)phenoxy)ethyl)piperazin-1-yl)acetamide] | * (0<Y<=25%) | < 0.1
14 | CCc1cc(N2C(=S)N(c3ccc(C#N)c(C(F)(F)F)c3)C(=O)C2(C)C)ccc1OCCN1CCN(CC(=O)Nc2cc(F)cc(NC3CCC(=O)NC3=O)c2)C(C)(C)C1 (stereo not drawn) [Example 73, 2-(4-(2-(4-(3-(4-cyano-3-(trifluoromethyl)phenyl)-5,5-dimethyl-4-oxo-2-thioxoimidazolidin-1-yl)-2-ethylphenoxy)ethyl)-2,2-dimethylpiperazin-1-yl)-N-(3-(2,6-dioxopiperidin-3-ylamino)-5-fluorophenyl)acetamide] | * (0<Y<=25%) | < 0.1
15 | CCc1cc(N2C(=S)N(c3cnc(C#N)c(C(F)(F)F)c3)C(=O)C2(C)C)ccc1OCCN1CCN(CC(=O)Nc2cc(Cl)cc(NC3CCC(=O)NC3=O)c2)[C@H](C)C1 (stereo partly drawn) [Example 74, N-(3-chloro-5-(2,6-dioxopiperidin-3-ylamino)phenyl)-2-((R)-4-(2-(4-(3-(6-cyano-5-(trifluoromethyl)pyridin-3-yl)-5,5-dimethyl-4-oxo-2-thioxoimidazolidin-1-yl)-2-ethylphenoxy)ethyl)-2-methylpiperazin-1-yl)acetamide] | * (0<Y<=25%) | < 0.1
